From the supplement of paper PMC10307832

What was measured:
kb NB 142-70 + Foretinib = compound: C1CSC2=C(C(=O)N1)SC3=C2C=C(C=C3)O [kb NB 142-70] + COc1cc2c(Oc3ccc(NC(=O)C4(C(=O)Nc5ccc(F)cc5)CC4)cc3F)ccnc2cc1OCCCN1CCOCC1 [Foretinib] (partner 0.25 µM); experiment: relative viability (nuclei count vs DMSO), 5 days (fraction); higher = more cells survive
Summary of the method: (§1)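 Relative viability equals treated-well nuclei counts divided by vehicle-well nuclei counts. Counts came from 4× images of lung cancer cell lines grown in 1536-well plates for 5 days after pin-tool dosing on the day after seeding. Dosing used one drug alone or a fixed anchor-drug dose plus five library-drug doses (not always all listed) in √10 steps, and values are medians of duplicate plates.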

[1] = compound: NCC(=O)Nc1ccc(-n2nc(C(F)(F)F)cc2-c2ccc3c(ccc4ccccc43)c2)cc1 + Cc1cc(Nc2cc(N3CCN(C)CC3)nc(Sc3ccc(NC(=O)C4CC4)cc3)n2)n[nH]1 [Tozasertib] (partner 0.1 µM); experiment: as above
Summary of the method: as §1

Row | Cell Line | relative viability (kb NB 142-70 + Foretinib; first compound 0.1 µM) | relative viability (kb NB 142-70 + Foretinib; first compound 1 µM) | relative viability (kb NB 142-70 + Foretinib; first compound 3.162 µM) | relative viability ([1]; first compound 0.02 µM) | relative viability ([1]; first compound 0.06325 µM) | relative viability ([1]; first compound 0.2 µM) | relative viability ([1]; first compound 0.6325 µM) | relative viability ([1]; first compound 2 µM)
1 | NCI-H1975 | 0.92 | 0.928 | 0.566 | 0.7 | 0.841 | 0.839 | 0.726 | 0.747
2 | CAL-12T | 1.03 | 1.18 | 0.837 | 0.304 | 0.368 | 0.344 | 0.334 | 0.277
3 | NCI-H1623 | 0.932 | 0.843 | 0.722 | 0.407 | 0.429 | 0.464 | 0.396 | 0.488
4 | HCC-44 |  |  |  | 1.03 | 1.26 | 0.879 | 0.803 | 0.829
5 | EKVX | 0.834 | 0.903 | 0.86 | 0.443 | 0.374 | 0.431 | 0.39 | 0.386
6 | NCI-H1651 | 0.802 | 0.683 | 0.618 | 0.703 | 0.694 | 0.906 | 0.588 | 0.676
7 | NCI-H1944 | 0.883 | 0.934 | 0.998 | 0.239 | 0.264 | 0.264 | 0.26 | 0.27
8 | NCI-H1703 | 0.351 | 0.338 | 0.346 |  |  |  |  | 
9 | Calu-6 | 0.809 | 0.896 | 0.54 |  |  |  |  | 
10 | EBC-1 | 0.0986 | 0.12 | 0.0991 |  |  |  |  | 
11 | SW 1573 | 0.892 | 0.797 | 0.605 | 0.244 | 0.15 | 0.272 | 0.228 | 0.182
12 | A-427 | 1.14 | 1.25 | 0.929 |  | 0.213 | 0.191 | 0.208 | 0.205
13 | NCI-H2347 | 0.744 | 1.21 | 0.72 | 0.586 | 0.71 | 0.482 | 0.618 | 0.73
14 | NCI-H1355 | 0.946 | 1.06 | 0.975 | 0.558 | 0.657 | 0.574 | 0.57 | 0.57
15 | NCI-H358 | 0.57 | 0.521 | 0.101 | 0.0971 | 0.102 | 0.12 | 0.0969 | 0.0967
16 | PC-3 [JPC-3] | 0.999 | 1.07 | 1.01 | 0.9 | 0.889 | 0.976 | 0.971 | 0.828
17 | NCI-H2228 | 0.956 | 0.939 | 0.543 | 0.217 | 0.265 | 0.308 | 0.27 | 0.229
18 | HOP-62 | 1.19 | 1.18 | 1.02 | 0.364 | 0.409 | 0.37 | 0.409 | 0.365
19 | HARA | 0.771 | 0.521 | 0.867 | 0.0731 | 0.108 | 0.12 | 0.0964 | 0.0949
20 | NCI-H838 | 1.02 | 1.06 | 1.04 | 0.264 | 0.35 | 0.299 | 0.285 | 0.291

Row | Cell Line | relative viability (kb NB 142-70 + Foretinib; first compound 0.1 µM) | relative viability (kb NB 142-70 + Foretinib; first compound 1 µM) | relative viability (kb NB 142-70 + Foretinib; first compound 3.162 µM) | relative viability ([1]; first compound 0.02 µM) | relative viability ([1]; first compound 0.06325 µM) | relative viability ([1]; first compound 0.2 µM) | relative viability ([1]; first compound 0.6325 µM) | relative viability ([1]; first compound 2 µM)
21 | NCI-H1755 | 0.928 | 0.867 | 0.944 | 0.626 | 0.596 | 0.6 | 0.591 | 0.555
22 | HCC-78 | 0.496 | 0.585 | 0.614 | 0.408 | 0.415 | 0.501 | 0.403 | 0.411
23 | IA-LM | 1.31 | 1.34 | 1.37 |  |  |  |  | 
24 | NCI-H322M | 0.891 | 1.04 | 1.04 | 0.54 | 0.461 | 0.517 | 0.491 | 0.517
25 | NCI-H3122 | 0.956 | 0.926 | 0.942 | 0.412 | 0.431 | 0.391 | 0.366 | 0.236
26 | COR-L23 | 1.06 | 1.04 | 0.457 | 0.208 | 0.213 | 0.195 | 0.21 | 0.136
27 | NCI-H2087 | 1.25 | 1.32 | 0.968 | 0.208 | 0.272 | 0.21 | 0.26 | 0.259
28 | LC-2-ad | 0.977 | 0.953 | 0.668 | 0.399 | 0.546 | 0.486 | 0.469 | 0.42
29 | NCI-H1915 | 1.1 | 1.12 | 0.82 | 0.378 | 0.465 | 0.426 | 0.418 | 0.407
30 | NCI-H1793 | 0.603 | 0.742 | 0.813 | 0.343 | 0.346 | 0.368 | 0.393 | 0.324
31 | NCI-H2023 | 0.859 | 0.89 | 0.663 | 0.326 | 0.394 | 0.441 | 0.387 | 0.321
32 | COR-L 105 | 1.11 | 1.03 | 1 | 0.361 | 0.313 | 0.303 | 0.295 | 0.336
33 | RERF-LC-KJ | 0.941 | 0.905 | 0.938 | 0.449 | 0.548 | 0.555 | 0.552 | 0.403
34 | LXF-289 | 0.973 | 1.01 | 0.813 | 0.233 | 0.196 | 0.202 | 0.214 | 0.197
35 | PC-14 | 0.936 | 0.919 | 1.07 | 0.634 | 0.606 | 0.543 | 0.517 | 0.651
36 | NCI-H650 | 1.02 | 1.06 | 0.851 | 0.691 | 0.754 | 0.761 | 0.676 | 0.631
37 | NCI-H1666 | 0.993 | 1.02 | 0.814 | 0.579 | 0.63 | 0.578 | 0.584 | 0.572
38 | NCI-H2085 | 0.964 | 1.06 | 0.513 | 0.697 | 0.853 | 0.836 | 0.878 | 0.807
39 | NCI-H1734 | 0.873 | 0.738 | 0.456 | 0.28 | 0.271 | 0.276 | 0.286 | 0.254
